Laboratory results from patent publication US5886000A, “Anti-HIV agent” (Nissui Pharmaceutical Co., Ltd,, priority 1994, dated 1999).
Like-named read-outs stand apart in the source and are kept apart here.

Key:
Molt-4/IIIB = test: Anti-HIV activity in persistently infected Molt-4/IIIB cells; assay type: cell-based; conditions: Human immunodeficiency virus 1, IIIB, read-out: Anti-HIV activities (inhibition %)
Method: (§1) Predetermined concentrations of test agents were separately added to cells (2×10^5 cells/ml, 10 ml) persistently infected with HIV in a logarithmic growth phase to culture them for 96 hours, thereby counting the number of living cells and the number of killed cells every 24 hours by a trypan blue dye exclusion test to determine the cytotoxic effects of the test agents on the cells. A viral infectious titer (TCID50 /ml) in each of the culture solutions incubated for 96 hours was determined by 72-hour culture using, as an index, the giant cell formation of MT-4 cells. As a control, culture was conducted in a medium free of any agent. An anti-HIV activity (inhibition %) was determined in accordance with the following equation. [formula]

CEM/LAV-1 = test: Anti-HIV activity in persistently infected CEM/LAV-1 cells; assay type: cell-based
Method: as §1

H9 /MN = test: Anti-HIV activity in persistently infected H9 /MN cells; assay type: cell-based
Method: as §1

U937 /RF = test: Anti-HIV activity in persistently infected U937 /RF cells; assay type: cell-based
Method: as §1

AIDS = conditions: clinical use; cited from earlier work
Tat = biological target: T1, Tat (Human immunodeficiency virus type 1 group M subtype B, UniProt P04608); test: Tat-inhibiting effect (reporter plasmid and Tat activator plasmid cotransfected into COS-7 cells); assay type: cell-based, HIV
T1 construct: expressed in transfected cells; host or cells: COS-7 cells
Method: After a reporter plasmid and an activator plasmid of Tat were cotransfected into COS-7 cells by a DEAE dextran method to culture the cells at 37° C. for 24 hours in the presence of 5% CO2, the transfectant was added to 96-well microplates, in which a test agent had been placed in advance, in a proportion of 1×10^4 cells/well, followed by reculture at 37° C. for 3 days in the presence of 5% CO2. A supernatant (50 μl) of each of the cultures was then added to another 96-well microplate in which p-nitrophenyl phosphate as a substrate and a buffer had been placed, followed by incubation at 37° C. for 3 hours. The variation in absorbance at 405 nm due to p-nitrophenol formed was then measured to determine the presence of a Tat-inhibiting effect.

CEM cells = test: Cytotoxicity test, CEM cells (trypan blue dye exclusion); assay type: cell-based; conditions: concentrations not greater than 500 μM
Method: (§2) Culture solutions (10 ml) of CEM and a strain CEM/LAV persistently producing HIV-1, both, in a logarithmic growth phase were prepared with media containing various concentrations of a test agent so as to give a concentration of 2.5×10^5 cells/ml, followed by culture at 37° C. in the presence of 5% CO2. After pipetting each cells culture solution every 24 hours, it was collected to count the number of living cells and the number of killed cells by a trypan blue dye exclusion test.

[1] = test system: HIV-constituting proteins (p24, p41); test: Detection of HIV-constituting proteins by western immunoblotting, primarily infected CEM cells; assay type: cell-based, HIV-1; conditions: 500 μM
Method: (§3) Cells were collected from a culture solution (1.0×10^6 cells/ml, 108 ml) of CEM in a logarithmic growth phase by centrifugation (260×g, 5 minutes). An HIV-1 virus solution (12×10^5 TCID50) was added to the cells to culture them at 37° C. for 24 hours in 180 ml of a medium, thereby adsorbing the virus thereon. After a culture supernatant containing the virus was then removed by centrifugation (260×g, 5 minutes), and the residue was washed three times with 50 ml of an RPMI-1640 basal medium under centrifugation (260×g, 5 minutes), media separately containing predetermined concentrations of test agents were used to prepare cell suspensions (1×10^5 cells/ml, 50 ml×2 sample for each concentration of the test agents). Each of these cell culture solutions was collected in 25-ml portions every 24 hours until 96 hours passed by. The collected solutions were subjected to SDS-PAGE, followed by western immunoblotting to detect virus-constituting proteins. Incidentally, an HIV-1 positive serum was used as a primary antibody.

[2] = test system: HIV-1 in primarily infected CEM cells; test: Viral infectious titer in culture supernatant of primarily infected CEM cells; assay type: cell-based; conditions: Human immunodeficiency virus 1, CCRF-CEM, % of a control
[3] = test system: primarily infected CEM cells; test: Effect on growth of primarily infected CEM cells; assay type: cell-based, HIV-1; conditions: concentrations not greater than 500 μM
Method: as §3

[4] = test system: CEM/LAV-1, H9 /MN and Molt-4/IIIB cells; test: Anti-HIV activity, summary over CEM/LAV-1, H9 /MN and Molt-4/IIIB cells; assay type: cell-based; conditions: 500 μM
Method: as §1

CEM/LAV cells = test: Cytotoxicity test, CEM/LAV cells persistently producing HIV-1 (trypan blue dye exclusion); assay type: cell-based; conditions: 500 μM
Method: as §2

[5] = Human immunodeficiency virus 1, 50 μM, 96 hours, read-out: Anti-HIV activities (inhibition %)
[6] = Human immunodeficiency virus 1, 96 h, read-out: Anti-HIV activities (inhibition %)
[7] = Human immunodeficiency virus 1, U-937, 50 μM, 96 hours, read-out: Anti-HIV activities (inhibition %)
[8] = COS-7, control = 100, read-out: Specific activity (%) (Average ± SE)
[9] = Human immunodeficiency virus 1, 125 μM, 96 hours, read-out: Anti-HIV activities (inhibition %)
[10] = Human immunodeficiency virus 1, 500 μM, 96 hours, read-out: Anti-HIV activities (inhibition %)

T1 sequence (P04608 whole entry): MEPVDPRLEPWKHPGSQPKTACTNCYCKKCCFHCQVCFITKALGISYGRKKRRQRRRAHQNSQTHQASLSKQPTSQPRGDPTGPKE

In the case of `CC(=C(CCO)SSCC1CCCO1)N(C=O)Cc1cnc(C)nc1N` (stereo in doubt) [Fursultiamine, fursultiamine], the inhibition at 50 µM (Molt-4/IIIB; MOLT-4, 96 h) is reported as 0%, the “anti-HIV activity (in words)” value (CEM/LAV-1; 50 μM) is reported as “marked anti-HIV activities” and the inhibition at 50 µM (CEM/LAV-1; [5]) is reported as 95%. For the same molecule, the “anti-HIV activity (in words)” value (H9 /MN; 50 μM) was “marked anti-HIV activities”, the inhibition at 50 µM (H9 /MN; [6]) was 96% and the “anti-HIV activity (in words)” value (U937 /RF; 50 μM) was “marked anti-HIV activities”. For the same molecule, the inhibition at 50 µM (U937 /RF; Human immunodeficiency virus 1, U-937, 96 h, read-out: Anti-HIV activities (inhibition %)) was 60%.

In the case of `Cc1cn([C@H]2C[C@H](N=[N+]=[N-])[C@@H](CO)O2)c(=O)[nH]c1=O` [AZT, azidothymidine], the side effects (AIDS) is given as “headache, gastrointestinal disorders and a myelodepresant effect”.

For `C=CCSSC(CCO)=C(C)N(C=O)Cc1cnc(C)nc1N` [Alitiamine, alitiamine], the inhibition at 50 µM (Molt-4/IIIB; MOLT-4, 50 μM, 96 hours) was 0%, the “anti-HIV activity (in words)” value (CEM/LAV-1; 50 μM) was “marked anti-HIV activities” and the inhibition at 50 µM (H9 /MN; [5]) was 0%. For the same molecule, the inhibition at 50 µM (U937 /RF; [7]) was 0%.

In the case of `CC(=C(CCOC(=O)C(C)C)SSC(CCOC(=O)C(C)C)=C(C)N(C=O)Cc1cnc(C)nc1N)N(C=O)Cc1cnc(C)nc1N` [Bisibutiamine, bisibutiamine], the inhibition at 50 µM (Molt-4/IIIB; MOLT-4, 50 μM, 96 hours) is reported as 0%, the inhibition at 50 µM (CEM/LAV-1; [6]) is reported as 0% and the “anti-HIV activity (in words)” value (H9 /MN; 50 μM) is reported as “marked anti-HIV activities”. It also gave an inhibition at 50 µM (H9 /MN; [5]) of 60% and an inhibition at 50 µM (U937 /RF; [7]) of 0%.

Molecule `N[C@@H](CCC(=O)N[C@@H](CS)C(=O)NCC(=O)O)C(=O)O` [Glutathione] has an activity at 250 µM (Tat; [8]) of 110 ± 17%.

For `CC(=O)N[C@@H](CS)C(=O)O` [N-Acetylcysteine], the activity at 125 µM (Tat; [8]) was 107 ± 13%, the activity at 250 µM (Tat; [8]) was 92 ± 8% and the activity at 500 µM (Tat; [8]) was 81.5 ± 5.7%.

`CC(=C(CCO)SSC(CCO)=C(C)N(C=O)Cc1cnc(C)nc1N)N(C=O)Cc1cnc(C)nc1N` [Thiamine disulfide, thiamine disulfide] showed an inhibition at 125 µM (Molt-4/IIIB; MOLT-4, 125 μM, 96 hours) of 80%, an inhibition at 500 µM (Molt-4/IIIB; MOLT-4, 500 μM, 96 hours) of 97% and an activity at 125 µM (Tat; [8]) of 92.3 ± 6.1%. For the same molecule, the activity at 250 µM (Tat; [8]) was 64.4 ± 6.1%, the activity at 500 µM (Tat; [8]) was 36.1 ± 6.3% and the “inhibition of the activity of Tat” value (Tat; concentrations of 125-500 μM) was “inhibited the activity of Tat in dependence on dose”. The inhibition at 125 µM (CEM/LAV-1; [9]) was 51%, the inhibition at 500 µM (CEM/LAV-1; [10]) was 90% and the “effect on growth and proliferation of CEM cells” value (CEM cells) was “did not affect the growth and proliferation”. The “formation of p24 and p41 protein in culture supernatant” value [1] was “neither p24 protein nor p41 protein was formed”, the inhibition at 125 µM (H9 /MN; [9]) was 90% and the inhibition at 500 µM (H9 /MN; [10]) was 99%. For the same molecule, the activity at 500 µM [2] was 0.3%, the “effect on growth of primarily infected CEM cells” value [3] was “did not affect the growth” and the inhibition at 125 µM (U937 /RF; Human immunodeficiency virus 1, U-937, 125 μM, 96 hours, read-out: Anti-HIV activities (inhibition %)) was 0%. For the same molecule, the inhibition at 500 µM (U937 /RF; Human immunodeficiency virus 1, U-937, 500 μM, 96 hours, read-out: Anti-HIV activities (inhibition %)) was 80%, the “anti-HIV activity (in words)” value (U937 /RF; concentration not given) was “marked anti-HIV activities” and the “anti-HIV activity (in words)” value [4] was “marked anti-HIV activities”. For the same molecule, the “effect on growth and proliferation of CEM/LAV cells” value (CEM/LAV cells) was “clearly inhibited the growth and proliferation” and the “number of killed cells” value (CEM/LAV cells) was “the number of killed cells did not increase”.

In the case of `O=C(O)CCCCC1CCSS1` (stereo not drawn) [α-Lipoic acid], the activity at 62.5 µM (Tat; COS-7, 62.5 μM, control = 100, read-out: Specific activity (%) (Average ± SE)) is reported as 78.8 ± 7.4%, the activity at 125 µM (Tat; [8]) is reported as 41.6 ± 9.9% and the activity at 250 µM (Tat; [8]) is reported as 17.5 ± 2.1%.
